Consider two compounds from patent US5348743A, “Anti-pathogenically effective compositions comprising lytic peptides and hydrolytic enzymes” (priority 1993, dated 1994).

In test [1] the test system is chitinase. It counts as biochemical, Phaseolus vulg. L. cv. saxa. How it is done:
(§1) Seeds of Phaseolus vulg. L. cv. saxa were grown in vermiculite under a 16 hr light: 8 hr dark regime at 20° C. Twelve day old bean plants were incubated in air-tight plastic chambers with a volume of 0.2 m^3. Control plants were incubated in identical chambers in ethylene-free air. After 48 hours, the primary leaves were harvested and frozen at -20° C.
(§2) 0.6597 kg frozen leaf tissue was homogenized in 0.1M sodium citrate buffer at pH 5.0 (2 ml×g^-1 fresh weight) with a Turmix homogenizer at top speed. The homogenate was centrifuged (25 Min., 11000 g) and 100 ml of the supernatant were used as a crude enzyme preparation. The proteins in the remaining crude extract were precipitated by adding ammonium sulfate to 95% saturation. After centrifugation (30 min., 11000 g) the sediment was redissolved in 100 mM Tris/HCl pH 8.0 and dialyzed against 5 mM Tris/HCl pH 8.0.
Chitinase activity was measured as described by Molano et al. (1977).

Test [2] has as its system beta-1,3-glucanase. The test is classed as biochemical, Phaseolus vulg. L. cv. saxa. The procedure:
as §1, §2
Beta-1,3-glucanase activity was measured as described by Dygert et al., Analyt. Biochem., 13:367-374 (1965).

The test system of test [3] is chitinase. As to conditions: Burri (1989), average of five ethylene treatments; cited from earlier work.
The test system of test [4] is beta-1,3-glucanase. The conditions noted are these: Burri (1989), average of five ethylene treatments; cited from earlier work.
In a further test the test system is S. nodorum. The test is described as follows: Inhibitory effect of lytic peptides and hydrolytic enzymes against S. nodorum (microtiter plates, liquid pea medium, absorbance at 595 nm). It counts as cell-based, Septoria nodorum. The procedure: Microtiter plates were selected to investigate the inhibitory effect of lytic peptides and hydrolytic enzymes against S. nodorum. Test substances were added to 90 ul liquid pea medium which had been previously inoculated with 2.0×10^4 spores/ml medium of the test pathogen to give a final volume of 100 ul. The blank value of the test substances were determined by adding them to uninoculated liquid pea medium. The plates were evaluated after incubation in a wet chamber at 23° C. on a shaker in the dark for 48 hours.
a. Hydrolytic enzymes were purified from ethylene-treated bean leaves by the procedure described in Example 1.
b. Lytic peptides: The following antimicrobial peptides were tested at 20 ppm, 60 ppm and 200 ppm concentrations:
d. Combinations of test substances: Table 3 illustrates the composition of test solutions which were tested in duplicate/triplicate samples.
e. Evaluation: The growth of the pathogen was recorded by measuring the absorbance of the medium at 595 nm. The average of duplicate/triplicate samples was calculated and the corresponding enzyme blank was subtracted to give the net absorption of the growing mycelium. The inhibitory effect of the test substances used was determined by calculating the growth of the pathogen as a percentage of water control.

Like-named read-outs stand apart in the source and are kept apart here.

On to `C=C` [ethylene], for which, in the test on chitinase [1], the Specific chitinase activity amounted to 45.95, the absolute chitinase activity is 54.71 and the “induction of chitinase in bean leaves” value is on record as “strong induction”. Besides, in the test on beta-1,3-glucanase [2], the “Specific beta-1,3-glucanase activity” value turned out to be 28.72, the “absolute beta-1,3-glucanase activity” value was found to be 34.21 and the “induction of beta-1,3-glucanase in bean leaves” value was “strong induction”. Besides, the absolute chitinase activity with chitinase [3] is 88.86±6.65 nkatal/ml extract. Also, in the test on beta-1,3-glucanase [4], the “absolute beta-1,3-glucanase activity” value is reported as 76.00±6.77 nkatal/ml extract.
Turning to “GIGKFLHSAK KFGKAFVGI MNS [SYNTHETIC PEPTIDE NO. 3]”, the “FUNGAL GROWTH IN PERCENTAGE OF CONTROL” value in the test with S. nodorum (test solution 5: lytic peptide 20 ppm alone, 48 hours, 23° C.) is 80.35 percentage of control; in the test on S. nodorum (test solution 6: lytic peptide 60 ppm alone, 48 hours, 23° C.), 73.51 percentage of control; in the test on S. nodorum (test solution 7: lytic peptide 200 ppm alone, 48 hours, 23° C.), 65.96 percentage of control; with S. nodorum (test solution 12: lytic peptide 20 ppm + chitinase 1/10 c), 68.42 percentage of control; in the test on S. nodorum (test solution 13: lytic peptide 60 ppm + chitinase 1/10 c) it was 63.51 percentage of control; in the test with S. nodorum (test solution 14: lytic peptide 200 ppm + chitinase 1/10 c), 61.75 percentage of control. For the same compound, the “FUNGAL GROWTH IN PERCENTAGE OF CONTROL” value in the test on S. nodorum (test solution 15: lytic peptide 20 ppm + chitinase 1/100 c) was 77.89 percentage of control; in the test with S. nodorum (test solution 16: lytic peptide 60 ppm + chitinase 1/100 c), 71.58 percentage of control; with S. nodorum (test solution 17: lytic peptide 200 ppm + chitinase 1/100 c), 64.21 percentage of control; in the test with S. nodorum (test solution 18: lytic peptide 20 ppm + beta-1,3-glucanase 1/10 c), 46.67 percentage of control; in the test on S. nodorum (test solution 19: lytic peptide 60 ppm + beta-1,3-glucanase 1/10 c) it was 30.88 percentage of control; with S. nodorum (test solution 20: lytic peptide 200 ppm + beta-1,3-glucanase 1/10 c), 27.89 percentage of control. Moreover, the “FUNGAL GROWTH IN PERCENTAGE OF CONTROL” value in the test on S. nodorum (test solution 21: lytic peptide 20 ppm + beta-1,3-glucanase 1/100 c) is 65.26 percentage of control; with S. nodorum (test solution 22: lytic peptide 60 ppm + beta-1,3-glucanase 1/100 c) it was 63.51 percentage of control; in the test on S. nodorum (test solution 23: lytic peptide 200 ppm + beta-1,3-glucanase 1/100 c), 53.68 percentage of control; with S. nodorum (test solution 24: lytic peptide 20 ppm + chitinase 1/10 c + beta-1,3-glucanase 1/10 c) it was 9.47 percentage of control; in the test with S. nodorum (test solution 25: lytic peptide 60 ppm + chitinase 1/10 c + beta-1,3-glucanase 1/10 c), 8.42 percentage of control; in the test on S. nodorum (test solution 26: lytic peptide 200 ppm + chitinase 1/10 c + beta-1,3-glucanase 1/10 c), 3.86 percentage of control. Besides, the “FUNGAL GROWTH IN PERCENTAGE OF CONTROL” value in the test with S. nodorum (test solution 27: lytic peptide 20 ppm + chitinase 1/100 c + beta-1,3-glucanase 1/100 c) is given as 40.7 percentage of control; in the test with S. nodorum (test solution 28: lytic peptide 60 ppm + chitinase 1/100 c + beta-1,3-glucanase 1/100 c) it was 36.49 percentage of control; in the test on S. nodorum (test solution 29: lytic peptide 200 ppm + chitinase 1/100 c + beta-1,3-glucanase 1/100 c), 31.23 percentage of control.
